Experimental data published in US9440950B2, “Arginine methyltransferase inhibitors and uses thereof” (Epizyme, Inc., priority 2013, dated 2016).

Tested on: Mono-Methyl Arginine in RKO cells
Assay: RKO Methylation Assay (In Cell Western)
Assay type: cell-based
Settings: Homo sapiens, 72 hours, percent activation
Source text: RKO Methylation Assay RKO adherent cells were purchased from ATCC (American Type Culture Collection), Manassas, Va., USA. DMEM/Glutamax medium, penicillin-streptomycin, heat inactivated fetal bovine serum, 0.05% trypsin and D-PBS were purchased from Life Technologies, Grand Island, N.Y., USA. Odyssey blocking buffer, 800CW goat anti-rabbit IgG (H+L) antibody, and Licor Odyssey infrared scanner were purchased from Licor Biosciences, Lincoln, Nebr., USA. Mono-methyl arginine antibody was purchased from Cell Signaling Technology, Danvers, Mass., USA. Methanol was purchased from VWR, Franklin, Mass., USA. 10% Tween 20 was purchased from KPL, Inc., Gaithersburg, Md., USA. DRAQ5 was purchased from Biostatus Limited, Leicestershire, UK. RKO adherent cells were maintained in growth medium (DMEM/Glutamax medium supplemented with 10% v/v heat inactivated fetal bovine serum and 100 units/mL penicillin-streptomycin) and cultured at 37° C. under 5% CO2. Cell Treatment, In Cell Western (ICW) for Detection of Mono-Methyl Arginine and DNA Content. RKO cells were seeded in assay medium at a concentration of 20,000 cells per mL to a poly-D-lysine coated 384 well culture plate (BD Biosciences 356697) with 50 μL per well. Compound (100 nL) from a 96-well source plate was added directly to 384 well cell plate. Plates were incubated at 37° C., 5% CO2 for 72 hours. After three days of incubation, plates were brought to room temperature outside of the incubator for ten minutes and blotted on paper towels to remove cell media. 50 μL of ice cold 100% methanol was added directly to each well and incubated for 30 min at room temperature. After 30 min, plates were transferred to a Biotek EL406 plate washer and washed 2 times with 100 μL per well of wash buffer (IX PBS). Next 60 μL per well of Odyssey blocking buffer (Odyssey Buffer with 0.1% Tween 20 (v/v)) were added to each plate and incubated 1 hour at room temperature. Blocking buffer was removed and 20 μL per well of primary antibody was added (mono-methyl arginine diluted 1:200 in Odyssey buffer with 0.1% Tween 20 (v/v)) and plates were incubated overnight (16 hours) at 4° C. Plates were washed 5 times with 100 μL per well of wash buffer. Next 20 μL per well of secondary antibody was added (1:200 800CW goat anti-rabbit IgG (H+L) antibody, 1:1000 DRAQ5 (Biostatus limited) in Odyssey buffer with 0.1% Tween 20 (v/v)) and incubated for 1 hour at room temperature. The plates were washed 5 times with 100 μL per well wash buffer then 2 times with 100 μL per well of water. Plates were allowed to dry at room temperature then imaged on the Licor Odyssey machine which measures integrated intensity at 700 nm and 800 nm wavelengths. Both 700 and 800 channels were scanned. Calculations: First, the ratio for each well was determined by: Each plate included fourteen control wells of DMSO only treatment (minimum activation) as well as fourteen control wells for maximum activation treated with 20 μM of a reference compound. The average of the ratio values for each control type was calculated and used to determine the percent activation for each test well in the plate. Reference compound was serially diluted three-fold in DMSO for a total of nine test concentrations, beginning at 20 μM. Percent activation was determined and EC30 curves were generated using triplicate wells per concentration of compound.

SMILES	EC30 [µM]
CN(CCN)Cc1c[nH]nc1-c1ccc(C(F)(F)F)nc1 [Compound 13, N^1-methyl-N^1-((3-(6-(trifluoromethyl)pyridin-3-yl)-1H-pyrazol-4-yl)methyl)ethane-1,2-diamine]	< 3
COc1cc(-c2n[nH]cc2CN(C)CCN)ccn1 [Compound 11]	3.01 to 12
CNCCN(C)Cc1c[nH]nc1-c1ccc(OCC(C)C)nc1 [Compound 35, N^1-((3-(6-iso-butoxypyridin-3-yl)-1H-pyrazol-4-yl)methyl)-N^1,N^2-dimethylethane-1,2-diamine]	< 3
CN(CCN)Cc1c[nH]nc1-c1cncc(F)c1 [Compound 7]	> 12
CCN(CC(C)C)c1ccc(-c2n[nH]cc2CN(C)CCNC)cn1 [Compound 36]	3.01 to 12
Cc1ccncc1-c1n[nH]cc1CN(C)CCN [Compound 17]	> 12
CC(C)Oc1ccc(-c2n[nH]cc2CN(C)CCN)cn1 [Compound 22]	< 3
COc1ccc(-c2n[nH]cc2CN(C)CCN)cn1 [Compound 5]	> 12
CNCCN(C)Cc1c[nH]nc1-c1ccc(N(CC(C)C)CC(C)C)nc1 [Compound 31]	> 12
CN(CCN)Cc1c[nH]nc1-c1cncc(Cl)c1 [Compound 19]	3.01 to 12
CN(CCN)Cc1c[nH]nc1-c1ccc(NCc2ccccc2)nc1 [Compound 25]	3.01 to 12
CNCCN(C)Cc1c[nH]nc1-c1ccc(N(C)C(C)C)nc1 [Compound 33, N^1-((3-(6-(isopropyl(methyl)amino)pyridin-3-yl)-1H-pyrazol-4-yl)methyl)-N^1,N^2-dimethylethane-1,2-diamine]	< 3
COc1ccncc1-c1n[nH]cc1CN(C)CCN [Compound 16]	> 12
COc1ncccc1-c1n[nH]cc1CN(C)CCN [Compound 15]	> 12
CCN(CC)c1ccc(-c2n[nH]cc2CN(C)CCN)cn1 [Compound 24]	> 12
CN(CCN)Cc1c[nH]nc1-c1ccncc1 [Compound 9]	3.01 to 12
CC(C)CN(C)c1ccc(-c2n[nH]cc2CN(C)CCN)cn1 [Compound 21]	3.01 to 12
CN(CCN)Cc1c[nH]nc1-c1ccc(N(C)Cc2ccccc2)nc1 [Compound 23]	3.01 to 12
CCN(CCC(C)C)c1ccc(-c2n[nH]cc2CN(C)CCNC)cn1 [Compound 34, N^1-((3-(6-(ethyl(isopentyl)amino)pyridin-3-yl)-1H-pyrazol-4-yl)methyl)-N^1,N^2-dimethylethane-1,2-diamine]	< 3
COc1ncc(Cl)cc1-c1n[nH]cc1CN(C)CCN [Compound 14]	> 12
CN(CCN)Cc1c[nH]nc1-c1cncc(C#N)c1 [Compound 18]	> 12
CNCCN(C)Cc1c[nH]nc1-c1ccc(N(C)CC(C)C)nc1 [Compound 32, N^1-((3-(6-(isobutyl(methyl)amino)pyridin-3-yl)-1H-pyrazol-4-yl)methyl)-N^1,N^2-dimethylethane-1,2-diamine]	< 3
CNCCN(C)Cc1c[nH]nc1-c1ccc(N(C)CCC(C)C)nc1 [Compound 30]	3.01 to 12
CN(CCN)Cc1c[nH]nc1-c1ccc(N2CCOCC2)nc1 [Compound 20]	3.01 to 12
COc1cc(-c2n[nH]cc2CN(C)CCN)c(Cl)cn1 [Compound 12]	> 12
CC(C)CNc1ccc(-c2n[nH]cc2CN(C)CCN)cn1 [Compound 26]	> 12
